Assay [1] deals with T1, human histamine H3 receptor (Homo sapiens, UniProt Q9Y5N1).
T1 construct: expressed in transfected cells; host or cells: SK-N-MC cells
The experiment in a line: Human histamine H3 receptor binding assay, [3H](R)-α-methylhistamine displacement. Conditions: SK-N-MC cell homogenates expressing hH3R; 0.5 nM [3H](R)-α-methylhistamine; mean ± SEM of three experiments. As for the experimental part:
Homogenates of SK–N–MC cells expressing human histamine H3 receptors (hH3Rs) were used to determine affinity values of the new compounds in radioligand displacement studies according to Lovenberg et al.’s method. SK–N–MC cells in confluent culture plates were harvested using trypsin digestion and then centrifuged for 5 min at 1100 rpm. Pellets, either fresh or stored at −80 °C until the moment of use, were mechanically homogenized with Potter-Elvhejem in 20 mM Tris-HCl/0.5 mM EDTA. Supernatants from a 2000 rpm spin (10 min) were collected and re-centrifuged at 10,000 rpm for 30 min. Pellets were re-homogenized in 50 mM Tris-HCl/5 mM EDTA (pH 7.4). Membranes were incubated for 60 min at room temperature with 0.5 nM [^3H](R)-α-methylhistamine in 50 mM Tris-HCl/5 mM EDTA (pH 7.4) with or without competing ligands. Each concentration was tested in triplicate. Incubation was terminated by rapid filtration over Millipore (Darmstadt, Germany) AAWPO2500 filters followed by two washes with ice-cold buffer (50 mM Tris-HCl/5 mM EDTA). Filters retained radioactivity was determined by liquid scintillation counting (Ultima Gold XR Perkin Elmer (Waltham, MA, USA) scintillation liquid, Tri-Carb 2810 TR Perkin Elmer (Waltham, MA, USA) Liquid Scintillation Analyzer). […] Data are expressed as mean ± SEM of three independent experiments.

Assay [2] deals with T2, human MT1 receptor (Homo sapiens, UniProt P48039).
T2 construct: expressed in transfected cells; host or cells: NIH3T3 fibroblast cells
In words: Human MT1 melatonin receptor binding assay, 2-[125I]iodomelatonin competition. The note with it: cloned human MT1 in NIH3T3 cell membranes; 2-[125I]iodomelatonin 100 pM; N.A. = Not active up to 100 μM. As to the method: (§1) Binding affinities were determined using 2-[^125I]iodomelatonin as the labeled ligand in competition experiments with cloned human MT1 and MT2 receptors expressed in NIH3T3 […] fibroblast cells. The characterization of NIH3T3 MT1 and MT2 cells was already described in detail. Membranes were incubated for 90 min at 37 °C in binding buffer (50 mM Tris/HCl, pH 7.4). The final membrane concentration was 5–10 μg of protein per tube. The membrane protein level was determined in accordance with a previously reported method. 2-[^125I]Iodomelatonin (100 pM) and different concentrations of the tested compounds were incubated with the receptor preparation for 90 min at 37 °C. […] The pKi values were calculated from the IC50 values according to the Cheng–Prusoff equation [51]. The pKi values are the mean of at least three independent determinations performed in duplicate.

The target of assay [3] is T3, human MT2 receptor (Homo sapiens, UniProt P49286).
T3 construct: expressed in transfected cells; host or cells: NIH3T3 fibroblast cells
T3 sequence (P49286 1-362): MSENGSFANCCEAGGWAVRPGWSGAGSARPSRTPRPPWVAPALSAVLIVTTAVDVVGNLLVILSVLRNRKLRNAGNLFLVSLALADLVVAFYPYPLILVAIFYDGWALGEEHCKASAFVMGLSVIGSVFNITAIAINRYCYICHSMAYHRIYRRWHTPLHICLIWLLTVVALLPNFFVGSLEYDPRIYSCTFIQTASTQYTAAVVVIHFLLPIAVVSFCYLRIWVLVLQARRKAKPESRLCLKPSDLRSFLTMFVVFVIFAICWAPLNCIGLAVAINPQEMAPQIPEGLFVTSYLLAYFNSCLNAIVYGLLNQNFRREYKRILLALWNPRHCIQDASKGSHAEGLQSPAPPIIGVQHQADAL
The experiment in a line: Human MT2 melatonin receptor binding assay, 2-[125I]iodomelatonin competition. Conditions: cloned human MT2 in NIH3T3 cell membranes; 2-[125I]iodomelatonin 100 pM; N.A. = Not active up to 100 μM. As to the method:
as §1

Assay [4] has as its target T2, human MT1 receptor. The experiment in a line: [35S]GTPγS binding assay, human MT1 receptor. The class given is biochemical. As to the method: (§2) To determine the functional activity of compound 14d at MT1 and MT2 receptor subtypes, [^35S]GTPγS binding assays in NIH3T3 cells expressing human-cloned MT1 or MT2 receptors were performed. The amount of bound [^35S]GTPγS is proportional to the level of the analog-induced G protein activation and is related to the intrinsic activity of the compound under study. The detailed description and validation of this method were reported elsewhere. Membranes (15–25 μg of protein, final incubation volume 100 μL) were incubated at 30 °C for 30 min in the presence and absence 14d, in assay buffer consisting of [^35S]GTPγS (0.3–0.5 nM), GDP (50 μM), NaCl (100 mM), and MgCl2 (3 mM). Nonspecific binding was defined using GTPγS (10 μM). […] Basal stimulation is the amount of [^35S]GTPγS specifically bound in the absence of compounds and was taken as 100%. […] All of the measurements were performed in triplicate.
(GTPγS resists hydrolysis and so accumulates on activated G proteins.)

Assay [5] deals with T3, human MT2 receptor. The experiment in a line: [35S]GTPγS binding assay, human MT2 receptor. The format is biochemical. As to the method: as §2

T1 sequence (Q9Y5N1 whole entry): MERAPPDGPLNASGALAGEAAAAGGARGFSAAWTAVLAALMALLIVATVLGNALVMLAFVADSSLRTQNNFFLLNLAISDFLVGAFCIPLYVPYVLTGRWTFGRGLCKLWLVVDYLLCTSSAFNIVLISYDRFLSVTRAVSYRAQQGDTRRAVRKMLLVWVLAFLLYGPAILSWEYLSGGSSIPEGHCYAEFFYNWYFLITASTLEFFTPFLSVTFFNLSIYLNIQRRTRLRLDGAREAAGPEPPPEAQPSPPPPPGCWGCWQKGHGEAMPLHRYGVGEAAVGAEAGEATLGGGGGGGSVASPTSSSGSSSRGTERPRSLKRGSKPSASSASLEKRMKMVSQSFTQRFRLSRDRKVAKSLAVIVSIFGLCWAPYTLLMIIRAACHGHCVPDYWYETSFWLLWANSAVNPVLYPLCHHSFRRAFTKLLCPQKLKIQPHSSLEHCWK
T2 sequence (P48039 whole entry): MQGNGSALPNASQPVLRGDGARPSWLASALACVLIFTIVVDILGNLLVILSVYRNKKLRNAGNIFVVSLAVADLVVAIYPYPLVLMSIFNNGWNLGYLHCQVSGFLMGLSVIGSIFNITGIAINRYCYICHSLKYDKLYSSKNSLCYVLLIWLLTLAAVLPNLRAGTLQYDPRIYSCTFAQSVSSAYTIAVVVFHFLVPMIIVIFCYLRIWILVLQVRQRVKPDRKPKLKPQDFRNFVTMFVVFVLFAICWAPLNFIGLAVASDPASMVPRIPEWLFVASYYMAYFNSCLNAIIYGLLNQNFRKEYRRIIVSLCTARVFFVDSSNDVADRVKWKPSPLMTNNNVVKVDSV

On to “N-[2-({3-[3-(1H-Imidazol-4-yl)propoxy]phenyl}methylamino)ethyl]acetamide [Compound 14a]”, for which, in assay [1], the “hH3 pKi” value amounted to 5.91 ± 0.01.
For the substance “N-[2-({3-[5-(1H-Imidazol-4-yl)pentyloxy]phenyl}methylamino)ethyl]acetamide [Compound 14c]”, in assay [2], the “hMT1 pKi” value was found to be 6.09 ± 0.12. Moreover, the “hMT2 pKi” value in assay [3] is reported as 6.28 ± 0.10. In addition, the “hH3 pKi” value in assay [1] is listed as 6.28 ± 0.03.
For the substance “N-[2-({3-[6-(1H-Imidazol-4-yl)hexyloxy]phenyl}methylamino)ethyl]acetamide [Compound 14d]”, the “hMT1 pKi” value in assay [2] is 6.79 ± 0.01. Further, in assay [3], the “hMT2 pKi” value was determined as 6.76 ± 0.06. Besides, in assay [1], the “hH3 pKi” value is listed as 6.22 ± 0.09. Also, the “functional behaviour at MT1 receptor in the GTPγS assay” value in assay [4] (GTPγS assay) is reported as “antagonist”. The “hMT1 IAR (relative intrinsic activity)” value in assay [4] ([35S]GTPγS binding, NIH3T3 cells expressing human MT1, relative to melatonin) is reported as −0.26 ± 0.09. Further, the “functional behaviour at MT2 receptor in the GTPγS assay” value in assay [5] (GTPγS assay) was “antagonist”. In addition, in assay [5] ([35S]GTPγS binding, NIH3T3 cells expressing human MT2, relative to melatonin), the “hMT2 IAR (relative intrinsic activity)” value is recorded as −0.35 ± 0.19.
